Results published in patent US20250195549A1, “NEW USE” (Kancera AB, priority 2023, published 2025).

Assays:
[1] = test system: ST-elevation myocardial infarction (STEMI) patients undergoing percutaneous coronary intervention; assay: FRACTAL phase IIa clinical study: left ventricular thrombus and intramyocardial haemorrhage by CMR and/or echocardiogram on day 3; format: in vivo, human; details: treatment group vs placebo, day 3 of the treatment
Source text: (§1) The FRACTAL (FRACTalkine inhibition in Acute myocardial infarction) study was designed as a phase Iia, randomised, two-arm parallel-group, placebo-controlled, double-blind, multi-centre trial. The trial was primarily intended to assess the safety tolerability of intravenous and oral administration of (2R)-2-[(2-amino-5-{[(1S)-1-phenylethyl]thio}[1,3]thiazolo[4,5-d]pyrimidin-7-yl)amino]-4-methylpentan-1-ol (KAND567) (hydrochloride salt) (′investigational medicinal product (IMP)′; structure below)
in ST-elevation myocardial infarction (STEMI) patients undergoing percutaneous coronary intervention. For this, a cohort of 71 STEMI patients were admitted into two large tertiary centres in the United Kingdom. Secondary endpoints included investigating the anti-inflammatory and cardioprotective effects of the treatment. […]
(§2) The primary outcome of the study was safety, but a number of key secondary outcomes being assessed in parallel. Blood samples at nine different time points were used to assess any changes in the immune compartment as well as in inflammatory markers, and the cardioprotective effects of KAND567, as measured by gadolinium-contrast Cardiac Magnetic Resonance (CMR) (Cardiac MRI), were assessed as an additional secondary end point. […]

[2] = test system: ST-elevation myocardial infarction (STEMI) patients undergoing percutaneous coronary intervention; assay: FRACTAL clinical study: infarct size by late gadolinium-enhanced (LGE) MRI at day 90; format: in vivo, human; details: for Infarct size, GAD5-SD(%): LGE MRI at day 90, average, N in brackets
Experimental: Every patient received a baseline CMR scan on day 3 post myocardial infarction, followed by a subsequent scan after 3 months. Image analysis was performed by a
Additionally, the size of the myocardial infarction was assessed using late gadolinium-enhanced (LGE) magnetic resonance imaging (MRI) at day 90 to compare infarct size in patients administered the placebo or the IMP, using a thresholding of 5 standard deviations above the mean signal intensity from normal myocardium.
The average infarct size for patients with and without intramyocardial haemorrhage in the placebo and treatment groups is shown in the table below.

[3] = test system: ST-elevation myocardial infarction (STEMI) patients undergoing percutaneous coronary intervention; assay: FRACTAL clinical study: safety, tolerability and bleeding; format: in vivo, human
Source text: as §1
Following angiography and final confirmation of eligibility, patients were randomised to receive the intravenous (IV) bolus of either investigational medicinal product (IMP) or placebo. To avoid delivery of the IMP after reperfusion of the occluded vessel, percutaneous coronary intervention (PCI) was only commenced following the intravenous bolus of IMP/placebo. Patients then completed the remainder of their IMP infusion over 6 h. […]
as §2

[4] = FRACTAL clinical study: steady state concentration during IV infusion; format: in vivo, human; details: IV infusion over 6 hours, total dose 134 mg; in the blood
Experimental: The IMP and placebo (IMP 7.5 mg/mL solution (comprising 7.5 mg/mL IMP, Kleptose HP, sodium chloride and disodium phosphate in water for injection) added to 250 mL sodium chloride 0.9%, placebo solution as IMP solution but without active ingredient) were administered intravenously over a 6 hour period, at the rate summarised in the table below.
• Infusion of the initial bolus dose (approximately 10 mg of the active ingredient) was commenced at least 2 minutes before initiation of PCI. • Reperfusion of the occluded vessel was then initiated by advancing a coronary wire past the occluded or partially occluded site, followed by either balloon angioplasty, thrombectomy or stenting, according to routine clinical care. • IV infusion was then continued over 6 hours with an estimated steady state concentration of 1.5 µM (the rate of infusion was adjusted 3 hours after the start of the bolus dose, to achieve a steady concentration in the blood). The same IV solution was used throughout to give a total dose of 134 mg of the active ingredient over the 6-hour infusion time; placebo solution as IMP solution but without active ingredient). • If required, a bridging peroral dose of 0 to 4 capsules (50 mg capsules of IMP (white, size 1, hard capsules) or matching placebo) was administered depending on timing of presenting at the hospital. […]

[5] = test system: rat myocardial infarction model; details: rat model without antiplatelet or anticoagulant co-treatment; cited from earlier work

estimated steady state concentration [4]: 1.5 UM
SMILES: CC(C)C[C@H](CO)Nc1nc(S[C@@H](C)c2ccccc2)nc2nc(N)sc12 [KAND567, (2R)-2-[(2-amino-5-{[(1S)-1-phenylethyl]thio}[1,3]thiazolo[4,5-d]pyrimidin-7-yl)amino]-4-methylpentan-1-ol]
intramyocardial haemorrhage (in words) [1]: significant reduction
left ventricular thrombus (in words) [1]: significant reduction
infarct size compared to the placebo group (in words) ([2]; day 90, beyond the benefit of avoiding intramyocardial hemorrhage): further reduction
Infarct size, GAD5-SD(%) ([2]; patients with intramyocardial hemorrhage, T-test vs placebo p = 0.81): 30.8 (11) %
Infarct size, GAD5-SD(%) ([2]; patients without intramyocardial hemorrhage, T-test vs placebo p = 0.15): 17.8 (16) %
safety and tolerability ([3]; intravenous and oral administration in STEMI patients): safe and well-tolerated
incidence of bleeding ([3]; treatment group vs placebo): no increased incidence of bleeding
infarct size [5]: reduce
inflammation [5]: reduce
intramyocardial haemorrhage [5]: reduce
